Experiments:
[1] = tested on: primary juvenile myelo-monocytic leukemia cells; test: Colony assay of primary JMML CD34+ cells in culture; type: cell-based; details: Homo sapiens, 288 h, colonies at 12 days, FIG. 6
Procedure: Heparinized bone marrow cells from a JMML patient were layered over Percoll (1.077 gm/ml) (Pharmacia Fine Chemical, Piscataway N.J.) and centrifuged at 400 g at 4° C. for 10 minutes to remove neutrophils and RBCs. Cells were further fractionated and purified on Miltenyi MS columns (Miltenyi Biotec GmbH, Germany) to acquire an early progenitor population of CD34^+ cells. The fractionated BM CD34^+ cells at a density of 1×10^4 cells/ml were cultured in IMDM (OCI, Toronto) containing 0.9% (vol/vol) methylcellulose supplemented with 30% FCS (Cansera Rexdale, ON.) with the indicated concentration of CR4. The culture mixture was plated in 1 ml volumes into 35 mm petri dishes and incubated at 37° C., 5% CO2 in a humidified atmosphere. Colonies consisting of more than 20 cells were counted at 12 days or earlier using an inverted microscope.

OCI-LY2 lymphoma cells = test: In vitro purging of OCI-Ly2 lymphoma cells; type: cell-based; details: 5 hours exposure, FIG. 16
Procedure: For the purging assay, the cells were resuspended in complete medium with or without CR4 as indicated and incubated at 37° C., 5% CO2 for 0-5 hours. Cells were then washed thoroughly with medium to remove CR4, resuspended and plated in 1 ml volumes at 5×10^3 cells/ml, in the absence of exogenous growth factors, into 35 mm petri dishes (Nunc, Gibco) containing IMDM (OCI, Toronto) plus 20% human cord blood plasma in 0.9% (vol/vol) methylcellulose (Fluka, Switzerland). Cultures were set at 37° C., 5% CO2 in a humidified atmosphere. Colonies consisting of more than 20 cells were counted at 5 days or earlier using an inverted microscope.

[2] = tested on: OCI-AML-3 acute myeloid leukemia cells; test: Colony assay of OCI-AML-3 cells in culture; type: cell-based; details: colonies at 5-6 days; FIG. 4
Procedure: OCI-AML-3 cells were plated in 35 mm petri dishes (Nunc, Gibco) in 1 ml volumes at a density of 3.3×10^3 cells/ml, in the absence of exogenous growth factors, containing alpha MEM plus 20% FCS (Cansera, Rexdale Ont.), and 0.9% (vol/vol) methylcellulose (Fluka, Switzerland) and the indicated concentrations of CR4. Cell cultures were incubated in a humidified atmosphere at 37° C. with 5% CO2. Colonies containing more than 20 cells were scored, using an inverted microscope, at 5-6 days.

normal bone marrow cells = test: CFU-GEMM assay: normal bone marrow differentiation in culture; type: cell-based, human
Procedure: (§1) The CFU-GEMM assay was performed according to Fauser and Messner (1978, Blood, 52(6) 143-8) and Messner and Fausser (1980, Blut, 41(5) 327-33) with some variations. In brief, heparinized bone marrow cells were layered over Percoll (1.077 gm/ml) (Pharmacia Fine Chemical, Piscataway N.J.) and centrifuged at 400 g at 4° C. for 10 minutes to remove neutrophils and RBCs. The fractionated BM cells at 2×10^5 cells/ml were cultured in IMDM (OCI, Toronto) containing 0.9% (vol/vol) methylcellulose supplementd with 30% FCS (Cansera Rexdale, ON.) or normal human plasma, a cocktail of cytokines containing G-CSF (10 ng/ml, Amgen), IL-3 (40 U/ml, Immunex), MGF (50 ng/ml, Immunex), Erythropoietin (2 u/ml, Epprex) or TPO (10 ng/ml, Amgen), 5×10^−5M β-2-mercaptoethanol and the specified concentration of CR4. The culture mixture was plated in 1 ml volumes into 35 mm petri dishes and incubated at 37° C., 5% CO2 in a humidified atmosphere. All cultures were evaluated at 14 days for the number of BFU-E colonies (defined as aggregates of more than 500 hemoglobinized cells or, 3 or more erythroid subcolonies), CFU-GM colonies (defined as granulocyte or monocyte-macrophage cells or both), CFU-Meg colonies (comprising 4 or more megakaryocytes) and CFU-GEMM colonies (a mixed population comprising of all elements).
as §1, with “1243-8)” for “143-8)”, “concentrations” for “concentration”, “CR19.” for “CR4.”, “hemaglobinized” for “hemoglobinized”, “subcolonies) and CFU-C” for “subcolonies), CFU-GM”, “both).” for “both), CFU-Meg colonies (comprising 4 or more megakaryocytes) and CFU-GEMM colonies (a mixed population comprising of all elements).”
as §1, with “1243-8)” for “143-8)”, “variations (British Journal of Haematology, 1992, 80, p 40-48).” for “variations.”, “test compound.” for “CR4.”, “CO2,” for “CO2”, “subcolonies) and CFU-C” for “subcolonies), CFU-GM”, “both).” for “both), CFU-Meg colonies (comprising 4 or more megakaryocytes) and CFU-GEMM colonies (a mixed population comprising of all elements).”

Structure (SMILES): N#C/C(=C\C=C\c1ccc(O)c(O)c1)C(=O)NCc1ccccc1 [CR4, (E,E)-2-(Benzylaminocarbonyl)-3-(3,4-dihydroxystyryl)acrylonitrile]
- inhibition at 5 µM [1]: 80 to 90%
- killing of OCI-Ly2 cells after purging (OCI-LY2 lymphoma cells; 12.5 μM): significant killing
- killing of OCI-Ly2 cells after purging (OCI-LY2 lymphoma cells; 25-50 μM): 90%
- concentrations effecting complete inhibition of AML-3 cell proliferation and survival [2]: 300 to 600 nM
- BFU-E colony formation (normal bone marrow cells; 10 μM, 14 days, FIG. 1): some inhibition
- CFU-GM colony numbers (normal bone marrow cells; 10 μM, 14 days, FIG. 1): significantly stimulated
- effect upon normal cells at equivalent concentrations (normal bone marrow cells; concentrations equivalent to those inhibiting the cancer cells of the same example): no effect
- toxicity upon normal bone marrow (normal bone marrow cells; doses up to 5 μM, colonies at 14 days, FIG. 1): negligible toxicity
- normal cell growth and differentiation (normal bone marrow cells; low nanomolar doses, long term exposure): unaffected
- concentrations until which minimal toxicity was seen in normal cells (normal bone marrow cells; normal cells incubated in the presence of compound): 10 to 20 µM

Source: patent US7598419B2, “Compounds for modulating cell proliferation” (HSC Research and Development Limited Partnership, priority 2004, dated 2009)
